From the supplement of paper PMC10627819

Experiments:
S. aureus Newman [1] = assay: Bliss interaction score (quartile over a dose matrix) (fitness difference); higher = more antagonism (negative = synergy)
How it was run: (§1)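 Growth was read as OD595 when cultures entered stationary phase, and each value was divided by the plate's robust no-drug mean and capped at 1. This normalised ratio is the fitness value, and fitness for each single drug came from the combination data. The Bliss score subtracts the expected fitness, taken as the product, from the observed fitness and is given as quartiles across technical, biological and donor/recipient replicates.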

S. pneumoniae D39V = assay: as above
How it was run: as §1

S. aureus DSM 20231 [2] = assay: as above
How it was run: as §1

B. subtilis 168 = assay: as above
How it was run: as §1

S. aureus Newman [3] = assay: fitness (endpoint OD595 vs no drug) (fraction); higher = more growth
How it was run: (§2)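 Growth medium was TSB, LB Lennox or CY, and plates were kept at 37 °C. Inoculation was at OD595 0.01 in 384-well plates, at 30 µl per well or 55 µl for S. pneumoniae. OD595 was monitored every 30 min for 14 h and background-subtracted using the first reading. Fitness is the optical density on entering stationary phase divided by the robust mean of no-drug controls, with values capped at 1.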

S. aureus DSM 20231 [4] = assay: as above
How it was run: as §2
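Wherever Bliss interaction score (quartile over a dose matrix) is given: first quartile when negative (synergy) and third quartile when positive (antagonism).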
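Wherever fitness (endpoint OD595 vs no drug) is given: OD595 on entry to stationary phase over no-drug wells; at most 1.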

O=C(N[C@H](CO)[C@H](O)c1ccc([N+](=O)[O-])cc1)C(Cl)Cl [Chloramphenicol] + CC1=C\[C@@H](O)CC(=O)Cc2nc(co2)C(=O)N2CCC=C2C(=O)O[C@H](C(C)C)[C@H](C)/C=C/C(=O)NC\C=C\1 [Virginiamycin M1]
Conditions	Bliss interaction score
B. subtilis 168	0.0462
S. aureus DSM 20231 [2]	-0.0544
S. aureus Newman [1]	-0.0589
S. pneumoniae D39V	0.0662

fitness
Conditions	first compound 0.75 µg/mL	first compound 1.5 µg/mL	first compound 3 µg/mL
S. aureus DSM 20231 [4], partner 0.0625 µg/mL	0.735	0.555	0.084
S. aureus DSM 20231 [4], partner 0.125 µg/mL	0.649	0.569	–
S. aureus DSM 20231 [4], partner 0.25 µg/mL	0.789	0.609	0.12
S. aureus Newman [3], partner 0.0625 µg/mL	0.77	0.467	0.144
S. aureus Newman [3], partner 0.125 µg/mL	0.777	0.474	0.151
S. aureus Newman [3], partner 0.25 µg/mL	0.792	0.488	0.179

fitness, one replicate
Conditions	first compound 0.75 µg/mL	first compound 1.5 µg/mL	first compound 3 µg/mL
S. aureus DSM 20231 [4], partner 0.5 µg/mL	0.884	0.601	–
S. aureus DSM 20231 [4], partner 1 µg/mL	0.811	0.535	0.149
S. aureus Newman [3], partner 0.5 µg/mL	0.827	0.609	0.286
S. aureus Newman [3], partner 1 µg/mL	≥ 1	0.692	0.26
S. aureus Newman [3], partner 2 µg/mL	0.815	0.683	0.153

O=C(N[C@H](CO)[C@H](O)c1ccc([N+](=O)[O-])cc1)C(Cl)Cl [Chloramphenicol] + CCCCCCCCCC(=O)N[C@@H]1[C@H]([C@@H]([C@H](O[C@H]1OC2=C3C=C4C=C2OC5=C(C=C(C=C5)[C@H]([C@H]6C(=O)N[C@@H](C7=C(C(=CC(=C7)O)OC8[C@H]([C@H]([C@@H]([C@H](O8)CO)O)O)O)C9=C(C=CC(=C9)[C@H](C(=O)N6)NC(=O)[C@@H]4NC(=O)[C@@H]1C2=CC(=CC(=C2)OC2=C(C=CC(=C2)[C@H](C(=O)N[C@H](CC2=CC(=C(O3)C=C2)Cl)C(=O)N1)N)O)O)O)C(=O)O)O[C@H]1[C@@H]([C@H]([C@@H]([C@H](O1)CO)O)O)NC(=O)C)Cl)CO)O)O [Teicoplanin]
main component drawn
Conditions	Bliss interaction score
B. subtilis 168	-0.0728
S. aureus DSM 20231 [2]	0.143
S. aureus Newman [1]	0.151
S. pneumoniae D39V	-0.0708

fitness, main component drawn
Conditions	first compound 0.75 µg/mL	first compound 1.5 µg/mL	first compound 3 µg/mL
S. aureus DSM 20231 [4], partner 0.1562 µg/mL	0.813	0.638	0.129
S. aureus DSM 20231 [4], partner 0.3125 µg/mL	0.804	–	0.141
S. aureus DSM 20231 [4], partner 0.625 µg/mL	0.915	0.739	0.149
S. aureus Newman [3], partner 0.1562 µg/mL	0.865	0.666	–
S. aureus Newman [3], partner 0.3125 µg/mL	0.876	0.679	0.112
S. aureus Newman [3], partner 0.625 µg/mL	0.842	0.725	0.13

fitness, S. aureus Newman [3], one replicate, main component drawn
Conditions	first compound 0.75 µg/mL	first compound 1.5 µg/mL	first compound 3 µg/mL
partner 0.62 µg/mL	0.876	0.634	0.256
partner 1.24 µg/mL	0.872	0.578	0.191
partner 2.48 µg/mL	0.584	0.512	–

O=C(N[C@H](CO)[C@H](O)c1ccc([N+](=O)[O-])cc1)C(Cl)Cl [Chloramphenicol] + CCN(CC)CCOC(=O)c1ccc(N)cc1 [Procaine]
Conditions	Bliss interaction score
B. subtilis 168	-0.0897
S. aureus DSM 20231 [2]	-0.0791
S. aureus Newman [1]	0.0594
S. pneumoniae D39V	-0.0498

fitness
Conditions	partner 85.5 µg/mL	partner 171 µg/mL	partner 342 µg/mL
S. aureus DSM 20231 [4], first compound 0.75 µg/mL	0.675	–	0.753
S. aureus DSM 20231 [4], first compound 1.5 µg/mL	0.516	0.57	0.538
S. aureus DSM 20231 [4], first compound 3 µg/mL	0.0915	0.0967	0.0943
S. aureus Newman [3], first compound 0.75 µg/mL	0.783	0.787	0.793
S. aureus Newman [3], first compound 1.5 µg/mL	0.531	0.559	0.577

O=C(N[C@H](CO)[C@H](O)c1ccc([N+](=O)[O-])cc1)C(Cl)Cl [Chloramphenicol] + CN1C2=CC=CC=C2N=C3C1=CC=CC3=O [Pyocyanin]
Conditions	Bliss interaction score
B. subtilis 168	0.049
S. aureus DSM 20231 [2]	-0.0896
S. aureus Newman [1]	-0.0632
S. pneumoniae D39V	0.0521

fitness
Conditions	first compound 0.75 µg/mL	first compound 1.5 µg/mL	first compound 3 µg/mL
S. aureus DSM 20231 [4], partner 1.25 µg/mL	0.645	–	0.0788
S. aureus DSM 20231 [4], partner 2.5 µg/mL	–	0.321	–
S. aureus DSM 20231 [4], partner 5 µg/mL	–	0.332	0.0653
S. aureus Newman [3], partner 1.25 µg/mL	0.741	0.5	0.174
S. aureus Newman [3], partner 2.5 µg/mL	0.725	0.41	0.137
S. aureus Newman [3], partner 5 µg/mL	0.333	0.173	0.0578

O=C(N[C@H](CO)[C@H](O)c1ccc([N+](=O)[O-])cc1)C(Cl)Cl [Chloramphenicol] + CN(N=O)C(=O)N[C@@H](C=O)[C@@H](O)[C@H](O)[C@H](O)CO [Streptozotocin]
Conditions	Bliss interaction score
B. subtilis 168	0.0462
S. aureus DSM 20231 [2]	-0.0514
S. aureus Newman [1]	0.0386
S. pneumoniae D39V	-0.0846

fitness
Conditions	first compound 0.75 µg/mL	first compound 1.5 µg/mL	first compound 3 µg/mL
S. aureus DSM 20231 [4], partner 0.15 µg/mL	0.677	0.481	0.104
S. aureus DSM 20231 [4], partner 0.3 µg/mL	0.603	0.46	0.1
S. aureus DSM 20231 [4], partner 0.6 µg/mL	0.616	0.385	0.0772
S. aureus Newman [3], partner 0.15 µg/mL	0.705	0.464	–
S. aureus Newman [3], partner 0.3 µg/mL	0.605	0.402	0.0999
S. aureus Newman [3], partner 0.6 µg/mL	0.47	0.295	0.0766
